Source: the NIST ThermoML archive (doi:10.1021/je900596d)

Conditions: for mass density: 303.28 K, Fluid (supercritical or subcritical phases), Vibrating tube method

FC(F)=C(F)C(F)(F)F [hexafluoropropene]
Conditions	vapor or sublimation pressure [kPa]
303.22 K, Liquid, Closed cell (Static) method	839.7

Conditions	mass density [kg/m3]
2.4 kPa	0.14
4.4 kPa	0.19
5.3 kPa	0.25
7.7 kPa	0.38
11 kPa	0.59
12.7 kPa	0.7
13.6 kPa	0.71
14.5 kPa	0.85
16.3 kPa	0.86
17.2 kPa	0.87
18.1 kPa	1.01
22.7 kPa	1.19
24.5 kPa	1.4
26.4 kPa	1.46
28.1 kPa	1.59
30 kPa	1.72
33.6 kPa	1.94
37.2 kPa	2.14
38.2 kPa	2.2
40 kPa	2.21
41.8 kPa	2.46
43.6 kPa	2.43
47.2 kPa	2.81
50.8 kPa	3.02
52.5 kPa	3.04
56 kPa	3.26
57.9 kPa	3.38
59.7 kPa	3.48
61.4 kPa	3.61
63.1 kPa	3.73
64.8 kPa	3.84
66.5 kPa	3.93
68.3 kPa	3.99
73.4 kPa	4.37
76 kPa	4.49
78.6 kPa	4.64
81.2 kPa	4.8
83.8 kPa	4.98
86.4 kPa	5.18
88.9 kPa	5.4
94.2 kPa	5.64
96.9 kPa	5.73
98.7 kPa	5.85
100.4 kPa	6.09
103.1 kPa	6.18
105.7 kPa	6.35
108.4 kPa	6.54
113.7 kPa	6.9
116.4 kPa	6.95
124.2 kPa	7.43
126.7 kPa	7.66
132.1 kPa	7.96
134.8 kPa	8.17
137.3 kPa	8.36
139.9 kPa	8.56
142.5 kPa	8.68
145.1 kPa	8.84
147.8 kPa	9.01
153 kPa	9.28
155.7 kPa	9.53
158.4 kPa	9.61
163.7 kPa	9.96
166.2 kPa	10.08
168.8 kPa	10.29
171.4 kPa	10.52
174 kPa	10.66
176.6 kPa	10.78
179.2 kPa	10.96
181.8 kPa	11.08
184.4 kPa	11.32
187 kPa	11.51
194.7 kPa	11.98
197.5 kPa	12.12
202.8 kPa	12.46
206.2 kPa	12.64
209.6 kPa	12.92
213 kPa	13.17
216.4 kPa	13.34
219.9 kPa	13.6
223.3 kPa	13.85
226.8 kPa	14.01
230.3 kPa	14.3
233.7 kPa	14.54
244.3 kPa	15.23
247.7 kPa	15.41
251.2 kPa	15.74
254.6 kPa	15.88
258.1 kPa	16.18
261.6 kPa	16.37
265.1 kPa	16.6
268.6 kPa	16.83
275.3 kPa	17.32
278.7 kPa	17.49
282.2 kPa	17.78
285.5 kPa	17.97
289 kPa	18.22
295.7 kPa	18.58
299.1 kPa	18.89
309 kPa	19.54
313.2 kPa	19.76
317.3 kPa	20.15
321.7 kPa	20.39
325.7 kPa	20.7
329.8 kPa	21.01
338 kPa	21.54
342 kPa	21.84
346.2 kPa	22.19
350.3 kPa	22.34
358.6 kPa	23.03
362.7 kPa	23.29
366.9 kPa	23.58
375.1 kPa	24.18
379.2 kPa	24.47
383.4 kPa	24.75
387.5 kPa	25.04
391.7 kPa	25.35
395.8 kPa	25.63
399.9 kPa	25.95
406.9 kPa	26.42
416.6 kPa	27.12
421.9 kPa	27.51
426.1 kPa	27.84
435.7 kPa	28.54
441.2 kPa	28.92
446.7 kPa	29.28
452.1 kPa	29.75
457.4 kPa	30.13
461.6 kPa	30.45
467 kPa	30.79
472.4 kPa	31.26
477.7 kPa	31.6
488.4 kPa	32.46
